ChEMBL document CHEMBL5236654, “Fine-tuning of nitrogen-containing bisphosphonate esters that potently induce degradation of HMG-CoA reductase” (Bioorg Med Chem, 2023)
pEC50: −log10 of the molar value.

target: T1, 3-hydroxy-3-methylglutaryl-coenzyme A reductase (Homo sapiens, UniProt P04035); assay: Induction of HMGCR degradation in human HepG2 cells incubated for 3 hrs by densitometric analysis; type: cell-based
T1 sequence (P04035 whole entry): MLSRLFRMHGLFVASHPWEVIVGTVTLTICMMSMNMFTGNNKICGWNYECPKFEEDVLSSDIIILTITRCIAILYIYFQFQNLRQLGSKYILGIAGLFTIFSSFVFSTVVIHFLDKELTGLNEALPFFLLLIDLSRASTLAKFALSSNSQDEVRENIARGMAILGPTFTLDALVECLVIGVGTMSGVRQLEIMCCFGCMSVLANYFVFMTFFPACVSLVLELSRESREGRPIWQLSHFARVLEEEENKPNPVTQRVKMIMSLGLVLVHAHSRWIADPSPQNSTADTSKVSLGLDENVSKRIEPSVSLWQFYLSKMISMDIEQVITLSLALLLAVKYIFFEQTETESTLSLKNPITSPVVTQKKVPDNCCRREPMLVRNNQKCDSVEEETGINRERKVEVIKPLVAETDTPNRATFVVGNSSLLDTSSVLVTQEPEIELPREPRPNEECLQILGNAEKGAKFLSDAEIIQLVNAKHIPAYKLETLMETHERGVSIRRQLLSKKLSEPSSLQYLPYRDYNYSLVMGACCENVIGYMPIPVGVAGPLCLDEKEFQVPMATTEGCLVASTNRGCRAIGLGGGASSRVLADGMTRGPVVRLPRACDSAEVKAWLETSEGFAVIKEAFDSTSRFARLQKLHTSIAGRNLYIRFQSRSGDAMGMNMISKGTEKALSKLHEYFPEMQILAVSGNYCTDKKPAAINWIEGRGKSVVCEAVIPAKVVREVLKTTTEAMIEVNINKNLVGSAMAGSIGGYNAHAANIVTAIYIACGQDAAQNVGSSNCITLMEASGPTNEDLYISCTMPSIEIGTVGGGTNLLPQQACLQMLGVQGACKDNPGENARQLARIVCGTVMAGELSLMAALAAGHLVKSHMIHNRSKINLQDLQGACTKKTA

`CCOP(=O)(OCC)C(Cc1cc(C(C)(C)C)c(O)c(C(C)(C)C)c1)P(=O)(OCC)OCC` showed a pEC50 of 5.96.

target: T2, 3-hydroxy-3-methylglutaryl-coenzyme A reductase (Cricetulus griseus, UniProt P00347); assay: Induction of HMGCR degradation in CHO-7 cells incubated for 16 hrs by immunoblotting assay; type: cell-based
T2 sequence (P00347 whole entry): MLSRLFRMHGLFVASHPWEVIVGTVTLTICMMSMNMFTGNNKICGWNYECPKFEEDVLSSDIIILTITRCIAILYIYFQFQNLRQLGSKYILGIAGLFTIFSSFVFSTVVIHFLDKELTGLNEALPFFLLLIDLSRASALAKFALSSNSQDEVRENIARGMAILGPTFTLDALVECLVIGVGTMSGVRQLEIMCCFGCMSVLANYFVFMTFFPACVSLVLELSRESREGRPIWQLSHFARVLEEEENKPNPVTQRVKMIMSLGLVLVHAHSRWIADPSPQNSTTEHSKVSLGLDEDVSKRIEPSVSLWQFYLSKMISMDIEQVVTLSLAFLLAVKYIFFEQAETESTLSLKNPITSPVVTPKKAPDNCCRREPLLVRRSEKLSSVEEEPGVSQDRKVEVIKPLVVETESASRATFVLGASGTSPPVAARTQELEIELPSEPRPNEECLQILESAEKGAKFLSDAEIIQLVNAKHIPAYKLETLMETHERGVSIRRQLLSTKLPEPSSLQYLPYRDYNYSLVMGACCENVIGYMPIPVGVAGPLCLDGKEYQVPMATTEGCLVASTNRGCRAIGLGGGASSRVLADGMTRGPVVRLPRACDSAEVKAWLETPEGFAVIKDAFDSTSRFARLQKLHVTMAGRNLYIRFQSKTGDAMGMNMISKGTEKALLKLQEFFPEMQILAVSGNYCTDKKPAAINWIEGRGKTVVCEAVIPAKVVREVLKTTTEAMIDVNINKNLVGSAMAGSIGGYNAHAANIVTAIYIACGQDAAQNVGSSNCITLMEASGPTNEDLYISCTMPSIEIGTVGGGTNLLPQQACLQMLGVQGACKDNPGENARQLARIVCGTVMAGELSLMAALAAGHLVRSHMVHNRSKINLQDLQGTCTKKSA

`C=CCC(O)(CC=C)CCC[C@@H](C)[C@H]1CC[C@H]2[C@@H]3[C@@H](O)C=C4C(C)(C)[C@@H](O)CC[C@]4(C)[C@H]3CC[C@]12C` was tested, and the pEC50 was 6.41.

target: T1, 3-hydroxy-3-methylglutaryl-coenzyme A reductase; assay: Induction of HMGCR degradation in HEK293 cells incubated for 4 hrs by luciferase based assay; type: cell-based

Compared with `CCCCOP(=O)(OCCCC)C(Cc1cc(C(C)(C)C)nc(C(C)(C)C)c1)P(=O)(OCCCC)OCCCC`, `CCCOP(=O)(OCCC)C(Cc1cc(C(C)(C)C)nc(C(C)(C)C)c1)P(=O)(OCCC)OCCC` is higher in pEC50: < 5.00 for the first, 6.08 for the second. The second is the more potent here.

Going from `CC(C)(C)c1cc(CC(P(=O)(OCC2CC2)OCC2CC2)P(=O)(OCC2CC2)OCC2CC2)cc(C(C)(C)C)n1` to `CCOP(=O)(OCC)C(Cc1cc(C(C)(C)C)nc(C(C)(C)C)c1)P(=O)(OCC)OCC`, the pEC50 rises from < 5.00 to 6.47. The second is the more potent here.

First: CC(C)OP(=O)(OC(C)C)C(Cc1cc(C(C)(C)C)nc(C(C)(C)COCc2ccccc2)c1)P(=O)(OC(C)C)OC(C)C
Second: CC(C)OP(=O)(OC(C)C)C(Cc1cc(Cc2ccccc2)nc(C(C)(C)C)c1)P(=O)(OC(C)C)OC(C)C
The pEC50 of the first is 0.45 log units higher: 6.51 for the first, 6.06 for the second. The first is the more potent here.

`CC(C)OP(=O)(OC(C)C)C(Cc1cc(C(C)(C)CF)nc(C(C)(C)CF)c1)P(=O)(OC(C)C)OC(C)C` and `CC(C)OP(=O)(OC(C)C)C(Cc1cc(C(C)(C)C)nc(C(C)(C)CF)c1)P(=O)(OC(C)C)OC(C)C` are within 0.2 log units of each other in pEC50: 7.07 for the first, 7.01 for the second.

Compared with `CC(C)OP(=O)(OC(C)C)C(Cc1cc(C(C)(C)C)nc(C23CC4CC(CC(C4)C2)C3)c1)P(=O)(OC(C)C)OC(C)C`, `CC(C)OP(=O)(OC(C)C)C(Cc1cc(C23CC4CC(CC(C4)C2)C3)nc(C23CC4CC(CC(C4)C2)C3)c1)P(=O)(OC(C)C)OC(C)C` is lower in pEC50: 5.65 for the first, < 5.00 for the second. The first is the more potent here.

Going from `CC(C)OP(=O)(OC(C)C)C(Cc1cc(C2CCCCC2)nc(C(C)(C)C)c1)P(=O)(OC(C)C)OC(C)C` to `CC(C)OP(=O)(OC(C)C)C(Cc1cc(C2CCCCC2)nc(C2CCCCC2)c1)P(=O)(OC(C)C)OC(C)C`, the pEC50 falls from 6.22 to < 5.00.

Going from `CCC(C)(C)c1cc(CC(P(=O)(OC(C)C)OC(C)C)P(=O)(OC(C)C)OC(C)C)cc(C(C)(C)C)n1` to `CCCC(C)(C)c1cc(CC(P(=O)(OC(C)C)OC(C)C)P(=O)(OC(C)C)OC(C)C)cc(C(C)(C)C)n1`, the pEC50 falls from 6.82 to 6.47 (0.35 log units). The first is the more potent here.

Going from `CCC(CF)(CF)c1cc(CC(P(=O)(OC(C)C)OC(C)C)P(=O)(OC(C)C)OC(C)C)cc(C(CC)(CF)CF)n1` to `CCC(CF)(CF)c1cc(CC(P(=O)(OC(C)C)OC(C)C)P(=O)(OC(C)C)OC(C)C)cc(C(C)(C)C)n1`, the pEC50 rises from 6.45 to 6.99 (0.54 log units). The second is the more potent here.

Going from `CC(C)OP(=O)(OC(C)C)C(Cc1cc(C(C)(C)C)nc(C(C)(C)CO)c1)P(=O)(OC(C)C)OC(C)C` to `CC(C)OP(=O)(OC(C)C)C(Cc1cc(C(C)(C)C)nc(C(C)(C)C)c1)P(=O)(OC(C)C)OC(C)C`, the pEC50 rises from 6.41 to 6.88 (0.47 log units). The second is the more potent here.

`CC(C)OP(=O)(OC(C)C)C(Cc1cc(C(C)(C)C)cc(C(C)(C)C)n1)P(=O)(OC(C)C)OC(C)C` and `CC(C)OP(=O)(OC(C)C)C(Cc1cc(C(C)(C)C)nc(C(C)(C)C)n1)P(=O)(OC(C)C)OC(C)C` are within 0.2 log units of each other in pEC50: 6.16 for the first, 6.35 for the second.

First: CCC(C)(C)c1cc(CC(P(=O)(OC(C)C)OC(C)C)P(=O)(OC(C)C)OC(C)C)cc(C(C)(C)CC)n1
Second: COCOCC(C)(C)c1cc(CC(P(=O)(OC(C)C)OC(C)C)P(=O)(OC(C)C)OC(C)C)cc(C(C)(C)C)n1
The pEC50 of the first is 0.70 log units higher: 7.01 for the first, 6.31 for the second.

`CCCCC(CC)c1cc(CC(P(=O)(OC(C)C)OC(C)C)P(=O)(OC(C)C)OC(C)C)cc(C(C)(C)C)n1` (centres undefined) and `CCC(CC)c1cc(CC(P(=O)(OC(C)C)OC(C)C)P(=O)(OC(C)C)OC(C)C)cc(C(C)(C)C)n1` are within 0.2 log units of each other in pEC50: 6.00 for the first, 6.14 for the second.

First: CC(C)OP(=O)(OC(C)C)C(Cc1cc(C(C)(C)C)nc2ccccc12)P(=O)(OC(C)C)OC(C)C
Second: CC(C)OP(=O)(OC(C)C)C(Cc1cc(C(C)C)nc(C(C)(C)C)c1)P(=O)(OC(C)C)OC(C)C
The pEC50 of the first is 0.61 log units lower: 5.84 for the first, 6.45 for the second.

With `CC(C)COP(=O)(OCC(C)C)C(Cc1cc(C(C)(C)C)nc(C(C)(C)C)c1)P(=O)(OCC(C)C)OCC(C)C` the pEC50 was < 5.00.
